# Measurements taken from ChEMBL document CHEMBL3046407, “Toxicity of monoterpenes against larvae and adults of Colorado potato beetle, Leptinotarsa decemlineata Say (Coleoptera: Chrysomelidae)” (2007).
# Legend:
# [1] = test system: Leptinotarsa decemlineata; experiment: Insecticidal activity against first-instar larval stage of Leptinotarsa decemlineata infested potato leaves assessed as mortality at 0.5 mg after 48 hr relative to control; format: functional
# [2] = test system: Leptinotarsa decemlineata; experiment: Insecticidal activity against first-instar larval stage of Leptinotarsa decemlineata infested potato leaves assessed as mortality at 0.5 mg after 24 hr relative to control; format: functional
# [3] = test system: Leptinotarsa decemlineata; experiment: Insecticidal activity against first-instar larval stage of Leptinotarsa decemlineata infested potato leaves assessed as mortality at 0.5 mg after 12 hr relative to control; format: functional
# [4] = test system: Leptinotarsa decemlineata; experiment: Insecticidal activity against adult Leptinotarsa decemlineata infested potato leaves assessed as mortality at 1 mg after 96 hr relative to control; format: functional
# [5] = test system: Leptinotarsa decemlineata; experiment: Insecticidal activity against adult Leptinotarsa decemlineata infested potato leaves assessed as mortality at 1 mg after 48 hr relative to control; format: functional
# [6] = test system: Leptinotarsa decemlineata; experiment: Insecticidal activity against adult Leptinotarsa decemlineata infested potato leaves assessed as mortality at 1 mg after 24 hr relative to control; format: functional
# [7] = test system: Leptinotarsa decemlineata; experiment: Insecticidal activity against adult Leptinotarsa decemlineata infested potato leaves assessed as mortality at 1 mg after 12 hr relative to control; format: functional
# [8] = test system: Leptinotarsa decemlineata; experiment: Insecticidal activity against adult Leptinotarsa decemlineata infested potato leaves assessed as mortality at 0.5 mg after 96 hr relative to control; format: functional
# [9] = test system: Leptinotarsa decemlineata; experiment: Insecticidal activity against adult Leptinotarsa decemlineata infested potato leaves assessed as mortality at 0.5 mg after 48 hr relative to control; format: functional
# [10] = test system: Leptinotarsa decemlineata; experiment: Insecticidal activity against adult Leptinotarsa decemlineata infested potato leaves assessed as mortality at 0.5 mg after 24 hr relative to control; format: functional
# [11] = test system: Leptinotarsa decemlineata; experiment: Insecticidal activity against adult Leptinotarsa decemlineata infested potato leaves assessed as mortality at 0.5 mg after 12 hr relative to control; format: functional
# [12] = test system: Leptinotarsa decemlineata; format: functional, Instar larval stage
# [13] = test system: Leptinotarsa decemlineata; format: functional, Instar larval stage; remark: listed apart in the source
# [14] = test system: Leptinotarsa decemlineata; experiment: Insecticidal activity against third-instar larval stage of Leptinotarsa decemlineata infested potato leaves assessed as mortality at 1 mg after 24 hr relative to control; format: functional
# [15] = test system: Leptinotarsa decemlineata; experiment: Insecticidal activity against third-instar larval stage of Leptinotarsa decemlineata infested potato leaves assessed as mortality at 1 mg after 12 hr relative to control; format: functional
# [16] = test system: Leptinotarsa decemlineata; format: functional, Instar larval stage; remark: listed apart in the source
# [17] = test system: Leptinotarsa decemlineata; format: functional, Instar larval stage; remark: listed apart in the source
# [18] = test system: Leptinotarsa decemlineata; experiment: Insecticidal activity against third-instar larval stage of Leptinotarsa decemlineata infested potato leaves assessed as mortality at 0.5 mg after 24 hr relative to control; format: functional
# [19] = test system: Leptinotarsa decemlineata; experiment: Insecticidal activity against third-instar larval stage of Leptinotarsa decemlineata infested potato leaves assessed as mortality at 0.5 mg after 12 hr relative to control; format: functional
# [20] = test system: Leptinotarsa decemlineata; format: functional, Instar larval stage; remark: listed apart in the source
# [21] = test system: Leptinotarsa decemlineata; format: functional, Instar larval stage; remark: listed apart in the source
# [22] = test system: Leptinotarsa decemlineata; format: functional, Instar larval stage; remark: listed apart in the source
# [23] = test system: Leptinotarsa decemlineata; experiment: Insecticidal activity against second-instar larval stage of Leptinotarsa decemlineata infested potato leaves assessed as mortality at 1 mg after 12 hr relative to control; format: functional
# [24] = test system: Leptinotarsa decemlineata; format: functional, Instar larval stage; remark: listed apart in the source
# [25] = test system: Leptinotarsa decemlineata; format: functional, Instar larval stage; remark: listed apart in the source
# [26] = test system: Leptinotarsa decemlineata; format: functional, Instar larval stage; remark: listed apart in the source
# [27] = test system: Leptinotarsa decemlineata; experiment: Insecticidal activity against second-instar larval stage of Leptinotarsa decemlineata infested potato leaves assessed as mortality at 0.5 mg after 12 hr relative to control; format: functional
# [28] = test system: Leptinotarsa decemlineata; experiment: Insecticidal activity against first-instar larval stage of Leptinotarsa decemlineata infested potato leaves assessed as mortality at 1 mg after 96 hr relative to control; format: functional
# [29] = test system: Leptinotarsa decemlineata; experiment: Insecticidal activity against first-instar larval stage of Leptinotarsa decemlineata infested potato leaves assessed as mortality at 1 mg after 48 hr relative to control; format: functional
# [30] = test system: Leptinotarsa decemlineata; experiment: Insecticidal activity against first-instar larval stage of Leptinotarsa decemlineata infested potato leaves assessed as mortality at 1 mg after 24 hr relative to control; format: functional
# [31] = test system: Leptinotarsa decemlineata; experiment: Insecticidal activity against first-instar larval stage of Leptinotarsa decemlineata infested potato leaves assessed as mortality at 1 mg after 12 hr relative to control; format: functional
# [32] = test system: Leptinotarsa decemlineata; experiment: Insecticidal activity against first-instar larval stage of Leptinotarsa decemlineata infested potato leaves assessed as mortality at 0.5 mg after 96 hr relative to control; format: functional
# [33] = test system: Leptinotarsa decemlineata; experiment: Insecticidal activity against second-instar larval stage of Leptinotarsa decemlineata infested potato leaves assessed as mortality at 20 ul after 96 hr (reference value: 3.3 +/- 3.3%); format: functional
# [34] = test system: Leptinotarsa decemlineata; experiment: Insecticidal activity against second-instar larval stage of Leptinotarsa decemlineata infested potato leaves assessed as mortality at 20 ul after 48 hr (reference value: 3.3 +/- 3.3%); format: functional
# [35] = test system: Leptinotarsa decemlineata; experiment: Insecticidal activity against second-instar larval stage of Leptinotarsa decemlineata infested potato leaves assessed as mortality at 20 ul after 24 hr (reference value: 3.3 +/- 3.3%); format: functional
# [36] = test system: Leptinotarsa decemlineata; experiment: Insecticidal activity against second-instar larval stage of Leptinotarsa decemlineata infested potato leaves assessed as mortality at 10 ul after 12 hr relative to control; format: functional
# [37] = test system: Sitophilus granarius; experiment: Insecticidal activity against Sitophilus granarius (granary weevil) assessed as mortality; format: functional
# [38] = test system: Leptinotarsa decemlineata; experiment: Insecticidal activity against adult Leptinotarsa decemlineata infested potato leaves assessed as mortality at 20 ul after 96 hr relative to control; format: functional
# [39] = test system: Leptinotarsa decemlineata; experiment: Insecticidal activity against adult Leptinotarsa decemlineata infested potato leaves assessed as mortality at 20 ul after 48 hr relative to control; format: functional
# [40] = test system: Leptinotarsa decemlineata; experiment: Insecticidal activity against adult Leptinotarsa decemlineata infested potato leaves assessed as mortality at 20 ul after 24 hr relative to control; format: functional
# [41] = test system: Leptinotarsa decemlineata; experiment: Insecticidal activity against adult Leptinotarsa decemlineata infested potato leaves assessed as mortality at 20 ul after 12 hr relative to control; format: functional
# [42] = test system: Leptinotarsa decemlineata; experiment: Insecticidal activity against adult Leptinotarsa decemlineata infested potato leaves assessed as mortality at 10 ul after 96 hr relative to control; format: functional
# [43] = test system: Leptinotarsa decemlineata; experiment: Insecticidal activity against adult Leptinotarsa decemlineata infested potato leaves assessed as mortality at 10 ul after 48 hr relative to control; format: functional
# [44] = test system: Leptinotarsa decemlineata; experiment: Insecticidal activity against adult Leptinotarsa decemlineata infested potato leaves assessed as mortality at 10 ul after 24 hr relative to control; format: functional
# [45] = test system: Leptinotarsa decemlineata; experiment: Insecticidal activity against adult Leptinotarsa decemlineata infested potato leaves assessed as mortality at 10 ul after 12 hr relative to control; format: functional
# [46] = test system: Leptinotarsa decemlineata; experiment: Insecticidal activity against second-instar larval stage of Leptinotarsa decemlineata infested potato leaves assessed as mortality at 20 ul after 12 hr relative to control; format: functional
# [47] = test system: Leptinotarsa decemlineata; experiment: Insecticidal activity against second-instar larval stage of Leptinotarsa decemlineata infested potato leaves assessed as mortality at 10 ul after 96 hr (reference value: 3.3 +/- 3.3%); format: functional
# [48] = test system: Leptinotarsa decemlineata; experiment: Insecticidal activity against second-instar larval stage of Leptinotarsa decemlineata infested potato leaves assessed as mortality at 10 ul after 48 hr (reference value: 3.3 +/- 3.3%); format: functional
# [49] = test system: Leptinotarsa decemlineata; experiment: Insecticidal activity against second-instar larval stage of Leptinotarsa decemlineata infested potato leaves assessed as mortality at 10 ul after 24 hr (reference value: 3.3 +/- 3.3%); format: functional
# [50] = test system: Leptinotarsa decemlineata; experiment: Insecticidal activity against first-instar larval stage of Leptinotarsa decemlineata infested potato leaves assessed as mortality at 20 ul after 96 hr relative to control; format: functional
# [51] = test system: Leptinotarsa decemlineata; experiment: Insecticidal activity against first-instar larval stage of Leptinotarsa decemlineata infested potato leaves assessed as mortality at 20 ul after 48 hr relative to control; format: functional
# [52] = test system: Leptinotarsa decemlineata; experiment: Insecticidal activity against first-instar larval stage of Leptinotarsa decemlineata infested potato leaves assessed as mortality at 20 ul after 24 hr relative to control; format: functional
# [53] = test system: Leptinotarsa decemlineata; experiment: Insecticidal activity against first-instar larval stage of Leptinotarsa decemlineata infested potato leaves assessed as mortality at 20 ul after 12 hr relative to control; format: functional
# [54] = test system: Leptinotarsa decemlineata; experiment: Insecticidal activity against first-instar larval stage of Leptinotarsa decemlineata infested potato leaves assessed as mortality at 10 ul after 96 hr relative to control; format: functional
# [55] = test system: Leptinotarsa decemlineata; experiment: Insecticidal activity against first-instar larval stage of Leptinotarsa decemlineata infested potato leaves assessed as mortality at 10 ul after 48 hr relative to control; format: functional
# [56] = test system: Leptinotarsa decemlineata; experiment: Insecticidal activity against first-instar larval stage of Leptinotarsa decemlineata infested potato leaves assessed as mortality at 10 ul after 12 hr relative to control; format: functional
# [57] = test system: Leptinotarsa decemlineata; experiment: Insecticidal activity against first-instar larval stage of Leptinotarsa decemlineata infested potato leaves assessed as mortality at 10 ul after 24 hr relative to control; format: functional
# [58] = test system: Leptinotarsa decemlineata; experiment: Insecticidal activity against third-instar larval stage of Leptinotarsa decemlineata infested potato leaves assessed as mortality at 20 ul after 96 hr (reference value: 3.3 +/- 3.3%); format: functional
# [59] = test system: Leptinotarsa decemlineata; experiment: Insecticidal activity against third-instar larval stage of Leptinotarsa decemlineata infested potato leaves assessed as mortality at 20 ul after 48 hr (reference value: 3.3 +/- 3.3%); format: functional
# [60] = test system: Leptinotarsa decemlineata; experiment: Insecticidal activity against third-instar larval stage of Leptinotarsa decemlineata infested potato leaves assessed as mortality at 20 ul after 24 hr relative to control; format: functional
# [61] = test system: Leptinotarsa decemlineata; experiment: Insecticidal activity against third-instar larval stage of Leptinotarsa decemlineata infested potato leaves assessed as mortality at 20 ul after 12 hr relative to control; format: functional
# [62] = test system: Leptinotarsa decemlineata; experiment: Insecticidal activity against third-instar larval stage of Leptinotarsa decemlineata infested potato leaves assessed as mortality at 10 ul after 96 hr (reference value: 3.3 +/- 3.3%); format: functional
# [63] = test system: Leptinotarsa decemlineata; experiment: Insecticidal activity against third-instar larval stage of Leptinotarsa decemlineata infested potato leaves assessed as mortality at 10 ul after 48 hr (reference value: 3.3 +/- 3.3%); format: functional
# [64] = test system: Leptinotarsa decemlineata; experiment: Insecticidal activity against third-instar larval stage of Leptinotarsa decemlineata infested potato leaves assessed as mortality at 10 ul after 24 hr relative to control; format: functional
# [65] = test system: Leptinotarsa decemlineata; experiment: Insecticidal activity against third-instar larval stage of Leptinotarsa decemlineata infested potato leaves assessed as mortality at 10 ul after 12 hr relative to control; format: functional
smiles,measurement,setting,value
CC1(C)[C@H](/C=C(\Cl)C(F)(F)F)[C@@H]1C(=O)O[C@@H](C#N)c1cccc(Oc2ccccc2)c1 (relative stereo) [REL-LAMBDA CYHALOTHRIN],mortality,[1],100%
same,mortality,[2],93.3%
same,mortality,[3],63.3%
same,mortality,[4],100%
same,mortality,[5],100%
same,mortality,[6],100%
same,mortality,[7],90%
same,mortality,[8],100%
same,mortality,[9],100%
same,mortality,[10],100%
same,mortality,[11],100%
same,mortality,[12],93.3%
same,mortality,[13],93.3%
same,mortality,[14],90%
same,mortality,[15],86.7%
same,mortality,[16],100%
same,mortality,[17],100%
same,mortality,[18],86.7%
same,mortality,[19],73.3%
same,mortality,[20],100%
same,mortality,[21],100%
same,mortality,[22],100%
same,mortality,[23],80%
same,mortality,[24],100%
same,mortality,[25],100%
same,mortality,[26],86.7%
same,mortality,[27],73.3%
same,mortality,[28],100%
same,mortality,[29],100%
same,mortality,[30],90%
same,mortality,[31],60%
same,mortality,[32],100%
CC12CCC(CC1)C(C)(C)O2 [EUCALYPTOL],mortality,[33],100%
same,mortality,[34],100%
same,mortality,[35],100%
same,mortality,[36],43.3%
same,mortality,[37],90%
same,mortality,[38],100%
same,mortality,[39],100%
same,mortality,[40],100%
same,mortality,[41],83.3%
same,mortality,[42],100%
same,mortality,[43],100%
same,mortality,[44],100%
same,mortality,[45],100%
same,mortality,[46],83.3%
same,mortality,[47],100%
same,mortality,[48],100%
same,mortality,[49],100%
same,mortality,[50],100%
same,mortality,[51],100%
same,mortality,[52],100%
same,mortality,[53],46.7%
same,mortality,[54],100%
same,mortality,[55],83.3%
same,mortality,[56],26.7%
same,mortality,[57],66.7%
same,mortality,[58],86.7%
same,mortality,[59],80%
same,mortality,[60],73.3%
same,mortality,[61],56.7%
same,mortality,[62],76.7%
same,mortality,[63],63.3%
same,mortality,[64],50%
same,mortality,[65],40%
